From patent publication US20070074295A1 (priority 2000, published 2007)

Assays:
[1] = tested on: UNC5H1 (a netrin receptor); assay: Rat Atlas Array, prefrontal cortex, chronic PCP model; format: in vivo
Protocol: (§5) Rats were injected with PCP (2.58 mg/kg) or vehicle i.p. for 5 days according to the YRING PCP model. […] On the same day, the rats began a course of i.p. injections every 2.5 days with either PCP (2.58 mg/kg) or vehicle.
(§6) 21 days after minipump implantation, animals were killed by cervical dislocation and the prefrontal cortex dissected and stored at −70° C. RNA was then prepared according to the protocol below and the corresponding cDNA synthesis and hybridisation procedure were conducted using the rat Atlas Array kit according to the manufacturer's instructions (Clontech).
(§7) Results are expressed as mean relative optical densities ±SEM. Statistical significance was defined as P<0.05. N=¾ per group.
(§8) Frozen tissue already resides in the ribolyser tubes from the dissection procedure • 1) Add 1.1 ml Qiagen lysis buffer (containing β-mercaptoethanol, final volume =3%). • 2) Perform 3×20 sec homogenisations at 6.5 g in a ribolyser. • 3) Spin 3 min in microfuge. • 4) Decant to fresh tube and re-spin 3 min. • 5) Decide at this stage if you want to dilute supernatant with more lysis buffer. • 6) Add equal volume of phenol/CHCl3 pH4.7, vortex 30 sec and leave on ice for 10 min. • 7) Re-vortex and spin 4° C. 5-10 min at 1500 g. • 8) Decant supernatant and add 100 μl H2O. Add an equal volume of phenol/CHCl3 pH4.7, vortex, spin 5-10 min at 1500 g. • 9) Decant supernatant and add 100 μl H2O. […]

Synapsins 1A&1B = assay: as above; format: in vivo
Protocol: as §5, §6, §7, §8

CIRL3 variant AA mRNA = assay: Semi-quantitative RT-PCR, prefrontal cortex, chronic PCP and antipsychotic treatment; format: in vivo, rat; conditions: chronic PCP treatment
Protocol: FIG. 16 illustrates the level of CIRL3 variant AA mRNA present in the prefrontal cortex of rat brain following chronic PCP and antipsychotic treatment (n=12 for all groups apart from veh-veh where n=11) […] and […] (SEQ ID NOS: 29-30) were the primer sequences used to amplify this product.
(§1) RT-PCR for specific isoforms of CIRL was then conducted in the prefrontal cortex.
(§2) 1 ml of lysis buffer (Qiagen), including 1% β-mercaptoethanol, was added to approximately 50-100 mg of brain tissue. Tissue samples were homogenised using a ribolyser (Hybaid) with 3 bursts at 6.5 g lasting 20 seconds each. Samples were then spun at room temperature in a microfuge for 3 minutes. The supernatant was removed and re-spun for a further 3 minutes. The supernatant was decanted to a fresh tube to which an equal volume of 70% ethanol was added. The remaining RNA isolation procedure was carried out according to the manufacturer's protocol (Qiagen).
(§3) Synthesis of cDNA was carried out according to manufacturers protocols (Life Technologies). Briefly 3-5μg of total RNA was reverse transcribed using oligo dT priming. After cDNA synthesis, samples were aliquoted and stored at −70° C. […]
(§4) Alterations in expression levels were determined by semi-quantitative PCR. […] Samples were removed over 4 consecutive cycles, however, the first cycle to be removed sometimes varied depending on when logarithmic amplification was detected. […]

CIRL1 mRNA = assay: as above; format: in vivo, rat; conditions: chronic PCP treatment
Protocol: FIG. 14 illustrates the level of CIRL1 mRNA present in the prefrontal cortex of rat brain following chronic PCP and antipsychotic treatment (n=12 for all groups apart from veh-veh where n=11). […] and […] (SEQ ID NOS: 25-26) were the primer sequences used to amplify this product.
as §1, §2, §3, §4

CIRL2 variant AB mRNA = assay: as above; format: in vivo, rat; conditions: chronic PCP treatment
Protocol: FIG. 15 illustrates the level of CIRL2 variant AB mRNA present in the prefrontal cortex of rat brain following chronic PCP and antipsychotic treatment (n=12 for all groups apart from veh-veh where n=11). […] and […] (SEQ ID NOS: 27-28) were the primer sequences used to amplify this product.
as §1, §2, §3, §4

TNFα mRNA = assay: RT-PCR for TNFα mRNA in rat prefrontal cortex; format: in vivo; conditions: acute PCP, single i.p. injection 2 mg/kg, 2 hrs and 24 hrs
Protocol: Four groups of rats were treated with (a) chronic PCP, (b) chronic vehicle (control), (c) chronic PCP plus chronic clozapine (as above) or (d) chronic PCP plus chronic haloperidol (as above). The tissue was processed for RNA extraction and RT-PCP as described above, using primers specific for TNFα mRNA.

rats = assay: Effect of haloperidol and clozapine on PCP induced hypofunction: LCGU; format: in vivo, rat; conditions: i.p. PCP 2.58 mgkg^−1; minipump vehicle, clozapine 20 or haloperidol 1 mgkg^−1/day; day 29
Description: The effect of antipsychotics on the positive symptoms is less well studied regarding imaging studies.

In the case of `c1ccc(C2(N3CCCCC3)CCCCC2)cc1` [PCP, phencyclidine], the “UNC5H1 expression (Atlas Array)” value [1] is reported as 3936 ± 472 relative optical densities, the “Synapsins 1A&1B expression (Atlas Array)” value (Synapsins 1A&1B) is reported as 23020 ± 1412 relative optical densities and the “expression of CIRL3 (AA) (RT-PCR)” value (CIRL3 variant AA mRNA) is reported as “reduced”. For the same compound, the “expression of CIRL1 (RT-PCR)” value (CIRL1 mRNA) was “reduced”, the “expression of CIRL2 (AB) (RT-PCR)” value (CIRL2 variant AB mRNA) was “reduced” and the “levels of TNFα in rat prefrontal cortex” value (TNFα mRNA) was “reduced”. The “LCGU, Au layer I” value (rats) was 138 ± 3 μmol/100 g/min, the “LCGU, Au layers II, III&IV” value (rats) was 174 ± 4 μmol/100 g/min and the “LCGU, Au layers V & VI” value (rats) was 120 ± 2 μmol/100 g/min. For the same compound, the “LCGU, AuD layer I” value (rats) was 126 ± 5 μmol/100 g/min, the “LCGU, AuD layers II, III&IV” value (rats) was 141 ± 6 μmol/100 g/min and the “LCGU, AuD layers V & VI” value (rats) was 105 ± 2 μmol/100 g/min. For the same compound, the “LCGU, CA1 molecular layer” value (rats) was 93 ± 2 μmol/100 g/min, the “LCGU, CA1 pyramidal cell layer” value (rats) was 63 ± 2 μmol/100 g/min and the “LCGU, CA1 stratum oriens” value (rats) was 59 ± 2 μmol/100 g/min. For the same compound, the “LCGU, CA1 stratum radiatum” value (rats) was 67 ± 2 μmol/100 g/min, the “LCGU, CA3 molecular layer” value (rats) was 90 ± 2 μmol/100 g/min and the “LCGU, CA3 pyramidal cell layer” value (rats) was 69 ± 2 μmol/100 g/min. The “LCGU, CA3 stratum oriens” value (rats) was 60 ± 3 μmol/100 g/min, the “LCGU, CA3 stratum radiatum” value (rats) was 70 ± 3 μmol/100 g/min and the “LCGU, DLL” value (rats) was 89 ± 4 μmol/100 g/min. The “LCGU, MD” value (rats) was 133 ± 6 μmol/100 g/min, the “LCGU, PrL layer I” value (rats) was 109 ± 4 μmol/100 g/min and the “LCGU, PrL layers II & III” value (rats) was 127 ± 5 μmol/100 g/min. The “LCGU, PrL layers V & VI” value (rats) was 97 ± 3 μmol/100 g/min, the “LCGU, Rt” value (rats) was 79 ± 2 μmol/100 g/min and the “LCGU, VLL” value (rats) was 98 ± 6 μmol/100 g/min. The “LCGU, cochlear nucleus” value (rats) was 92 ± 4 μmol/100 g/min, the “LCGU, mO layer I” value (rats) was 104 ± 5 μmol/100 g/min and the “LCGU, mO layers II & III” value (rats) was 121 ± 6 μmol/100 g/min. For the same compound, the “LCGU, mO layers V & VI” value (rats) was 113 ± 6 μmol/100 g/min.
